IC50 data for one substance are collected here from article PMC4030628 (Cancer research, 2013).

For this test, the target named is STAT3 (Homo sapiens, UniProt P40763). Briefly: fluorescence polarization competition with 5-FAM-GpYLPQTV phosphopeptide. It is filed as binding.
Sequence of STAT3 (P40763 2-770): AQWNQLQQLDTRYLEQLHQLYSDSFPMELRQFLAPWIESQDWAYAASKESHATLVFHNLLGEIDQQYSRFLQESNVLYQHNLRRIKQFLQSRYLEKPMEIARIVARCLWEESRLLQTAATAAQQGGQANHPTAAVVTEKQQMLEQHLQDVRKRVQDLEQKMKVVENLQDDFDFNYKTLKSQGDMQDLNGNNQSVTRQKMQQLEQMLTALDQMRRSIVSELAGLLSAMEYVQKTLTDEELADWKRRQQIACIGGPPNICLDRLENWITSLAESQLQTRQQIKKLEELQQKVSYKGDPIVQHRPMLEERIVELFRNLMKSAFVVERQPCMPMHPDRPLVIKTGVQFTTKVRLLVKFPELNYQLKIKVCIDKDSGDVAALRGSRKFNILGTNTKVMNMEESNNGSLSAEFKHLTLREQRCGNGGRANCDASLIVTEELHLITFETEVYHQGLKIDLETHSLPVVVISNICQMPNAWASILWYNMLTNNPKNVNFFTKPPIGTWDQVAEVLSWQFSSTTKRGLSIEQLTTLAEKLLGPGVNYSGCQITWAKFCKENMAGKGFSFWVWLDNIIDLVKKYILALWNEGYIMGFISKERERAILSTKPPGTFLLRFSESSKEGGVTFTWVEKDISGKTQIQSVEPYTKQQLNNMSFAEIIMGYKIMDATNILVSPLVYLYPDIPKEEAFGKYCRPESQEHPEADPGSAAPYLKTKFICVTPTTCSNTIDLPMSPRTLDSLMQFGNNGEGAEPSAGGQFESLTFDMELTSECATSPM

Substance S3I-1757 had an IC50 of 13.5 ± 0.5 µM.
